The source of these data is US20140004458A1, “MAGENTA TONER” (CANON KABUSHIKI KAISHA, priority 2011, published 2014).

Data set [1] can be described thus: evaluation of lightfastness of image sample (Atlas Weather-Ometer Ci4000). Format: physicochemical. The note with it: toner using the compound, in words; for lightfastness: satisfactory = ΔE less than 10 after 60 hours. Here is the method:
The image samples were placed in Atlas Weather-Ometer Ci4000 (from Toyo Seiki Seisaku-sho, Ltd.) and exposed for 60 hours. In this case, measurement conditions were as follows: black panel temperature: 50° C., chamber temperature: 40° C., relative humidity: 70%, and irradiance: 0.39 W/m^2 (340 nm).
The chromaticity (L*, a*, b*) in the L*a*b* color system was measured with the reflection densitometer (Model: SpectroLino, manufactured by GretagMacbeth) before and after the exposure test. The color difference (ΔE) was calculated from the following expression on the basis of measurements of the color characteristics:
Color difference(ΔE)={(a*before test−a*after test)^2+(b*before test−b*after test)^2+(L*before test−L*after test)^2}^1/2
In the case where ΔE was less than 10 after 60 hours, the sample was evaluated to have satisfactory lightfastness.

Data set [2] in a line: evaluation of lightness and saturation of image sample (L*a*b* chromaticity). The note with it: toner using the compound, in words. Format: physicochemical. Here is the method:
Image samples were formed using the resulting toners. The lightness and saturation of the samples were evaluated. To compare image characteristics, an image output test was made using a modified apparatus of LBP-5300 (manufactured by CANON KABUSHIKI KAISHA) as an image forming apparatus. The modification was performed in such a manner that a developing blade in a process cartridge was replaced with a stainless blade having a thickness of […] and that a blade bias of −200 V against a developing bias that was applied to a developing roller serving as a toner support was applicable.
With respect to each of the resulting image samples, chromaticity (L*, a*, b*) in the L*a*b* color system was measured with a reflection densitometer (Model: SpectroLino, manufactured by GretagMacbeth).
In the L*a*b* space, color coordinates indicating the magenta color of the Japan Color 2001 are defined as X (L1, a1, b1). In the L*a*b* space, coordinates of an intersection point of a plane including the L* axis and the coordinates X and the a*b* curve of the image sample obtained by the chromaticity measurement are defined as Y (L2, a2, b2). The a*b* curve is obtained by forming a plurality of image samples having different toner adhesion amounts. The difference Δc (=c2−c1) between a c* value [=c2={(a2^2+b2^2)}^1/2] at the intersection point Y and a c* value [=c1={(a1^2+b1^2)}^1/2] at the coordinates X was calculated. The difference ΔL (=L2−L1) between an L* value (=L2) at the intersection point Y and an L* value (=L1) at the coordinates X was calculated.
The lightness and saturation were evaluated on the basis of the following evaluation criteria.
A: Δc is 0 or more, and ΔL is 0 or more; B: Δc is −5 or more, and ΔL is −5 or more, excluding the case of Class A described above; and C: Δc is less than −5, or ΔL is less than −5.
In the case where Δc was −5 or more and ΔL was −5 or more, the sample was evaluated to have satisfactory lightness and saturation.

`CCN(CC)c1ccc2c(c1)Oc1cc(N(CC)CC)ccc1C21OC(=O)c2ccccc21` [(1)]: the “balance between the saturation and lightfastness” value in data set [1] was “not provided”. Besides, the lightness result in data set [2] is given as “satisfactory”.
In the case of `Cc1ccc(Nc2ccc3c4c(cc(=O)n3C)-c3ccccc3C(=O)c24)cc1` [(2)], the lightfastness entry in data set [1] is reported as “satisfactory”. Moreover, in data set [2], the lightness and saturation entry is listed as “not sufficient”.
Regarding `Cc1ccc(/N=N/c2c(O)c(C(=O)O)cc3ccccc23)c(S(=O)(=O)O)c1` [(3)], in data set [1], the lightfastness result was “satisfactory”. The lightness and saturation entry in data set [2] is “not sufficient”.
